The numbers were not newly measured in patent publication US12521484B2, “Irrigation system and methods of use” (Osteal Therapeutics, Inc., priority 2023, dated 2026), which cites them from elsewhere.

For data set [1], the system named is multiple common PJI organisms.
For data set [2] the following is noted: instillation of 50,000-100,000 μg/mL once or twice daily into the joint space; multiple patients.

In the case of `CN[C@H](CC(C)C)C(=O)N[C@H]1C(=O)N[C@@H](CC(N)=O)C(=O)N[C@H]2C(=O)N[C@H]3C(=O)N[C@H](C(=O)N[C@H](C(=O)O)c4cc(O)cc(O)c4-c4cc3ccc4O)[C@H](O)c3ccc(c(Cl)c3)Oc3cc2cc(c3O[C@@H]2O[C@H](CO)[C@@H](O)[C@H](O)[C@H]2O[C@H]2C[C@](C)(N)[C@H](O)[C@H](C)O2)Oc2ccc(cc2Cl)[C@H]1O` [vancomycin], the “minimum biofilm eradication concentration (MBEC)” value in data set [1] was “greater than 4,000 μg/mL”. Further, the serum concentrations result in data set [2] is listed as “exceeding safe limits”.
